Patent US20240190843A1, “CRYSTALLINE FORM OF A SHP2 INHIBITOR” (Array BioPharma Inc., priority 2021, published 2024)

Experiment: Comparative stability of stored solid samples (HPLC purity, PXRD, appearance after 7 days)
Format: physicochemical
Method: The chemical stability data using HPLC was evaluated on samples stored at several conditions as listed in Table 6 between free base hemihydrate Form 1 and amorphous form.
HPLC Method • Column: LC\027 Agilent Poroshell 120 EC-C18 150×4.6 mm, 2.7 μm • Column Temperature: 40° C. • Autosampler Temperature: Ambient • UV wavelength: 220 nm • Injection Volume: 4.00 μL • Flow Rate: 1.5 mL/min • Mobile Phase A: 0.02% TFA in H2O • Mobile Phase B: 0.02% TFA in MeCN • Time (minutes) Solvent B [%] • 0 20 • 3 20 • 15 70 • 15.1 95 • 16 95 • 16.1 20 • 20.0 20

Row | SMILES | HPLC purity (%) after 7 days (stored at 25° C./60% RH) [%] | Observations after 7 days (stored at 25° C./60% RH) | PXRD after 7 days (stored at 25° C./60% RH) | HPLC purity (%) after 7 days (stored at 40° C./75% RH) [%] | Observations after 7 days (stored at 40° C./75% RH) | PXRD after 7 days (stored at 40° C./75% RH) | HPLC purity (%) after 7 days (stored at 80° C.) [%] | Observations after 7 days (stored at 80° C.) | PXRD after 7 days (stored at 80° C.) | HPLC purity (%) after 7 days (stored at Ambient) [%] | Observations after 7 days (stored at Ambient) | PXRD after 7 days (stored at Ambient)
1 | Nc1nccc(Sc2cnc(N3CCC4(CC3)Cc3ccccc3[C@H]4N)nn2)c1Cl [Amorphous, (S)-1′-(6-((2-amino-3-chloropyridin-4-yl)thio)-1,2,4-triazin-3-yl)-1,3-dihydrospiro[indene-2,4′-piperidin]-1-amine] | 82.8 | Vibrant | Amorphous | 86.7 | Vibrant | Amorphous | 54.7 | Brown | Amorphous | 71.7 | Vibrant | Amorphous
2 | Nc1nccc(Sc2cnc(N3CCC4(CC3)Cc3ccccc3[C@H]4N)nn2)c1Cl [Form 1, (S)-1′-(6-((2-amino-3-chloropyridin-4-yl)thio)-1,2,4-triazin-3-yl)-1,3-dihydrospiro[indene-2,4′-piperidin]-1-amine] | 97.5 | Yellow | Form 1 | 97.6 | Yellow | Form 1 | 97.1 | Yellow | Form 1 | 97.1 | Yellow | Form 1
